{"source": "paper PMC9367663", "about": "(Journal of Enzyme Inhibition and Medicinal Chemistry, 2022)", "test_system": "VSV*ΔG(Luc)-S virus harbouring the spike from the D614G variant", "assay_type": "cell-based, SARS-CoV-2", "note": "Read-outs that look alike come from different tables or passages of the source.", "data": [{"smiles": "On1ccccc1=S", "note": "[a, 1-hydroxy-2(1H)-pyridinethione]", "values": [{"measurement": "inhibition of viral entry", "setting": "0.5 µM", "result": 15.33, "unit": "%"}, {"measurement": "inhibition of viral entry", "setting": "1 µM", "result": 16.67, "unit": "%"}, {"measurement": "inhibition of viral entry", "setting": "10 µM", "result": 74.34, "unit": "%"}, {"measurement": "inhibition of viral entry", "setting": "30 µM", "result": 86.41, "unit": "%"}, {"measurement": "IC50", "setting": "read-out: IC50 viral entry", "result": 5.19, "unit": "µM"}]}]}
